Experimental data reported in patent US20150105252A1, “SUBSTITUTED PYRAZOLES AS HERBICIDES” (E I DU PONT DE NEMOURS AND COMPANY, priority 2013, published 2015).

Tests used:
Assay in all cases: Test C postemergence
[1] = test system: crabgrass, large; type: in vivo, Digitaria sanguinalis; details: for Plant response rating (scale of 0 to 100 where 0 is no effect and 100 is complete control), Crabgrass, Large: Postemergence, 31 g ai/ha, visually evaluated after 13 to 15 days; for Crabgrass, Large plant response rating / Plant response rating, Crabgrass, Large: postemergence; for Crabgrass, Large plant response rating: 62 g ai/ha, scale 0 to 100
Procedure, shortened: (§1)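 Visual rating, 0–100 scale (0 no effect, 100 complete control), vs untreated controls after 13–15 d greenhouse. Pre: seeds in loam/sand, treated at sowing. Post: plants in peat-based mix, 1- to 4-leaf (2–18 cm). Solvent + surfactant formulation, non-phytotoxic.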

[2] = test system: galium; type: in vivo, Galium aparine; details: for Plant response rating (scale of 0 to 100 where 0 is no effect and 100 is complete control), Galium: Postemergence, 31 g ai/ha, visually evaluated after 13 to 15 days; for Galium plant response rating / Plant response rating, Galium: postemergence; for Galium plant response rating: 62 g ai/ha, scale 0 to 100
Procedure, shortened: as §1

[3] = test system: oat, wild; type: in vivo, Avena fatua; details: for Plant response rating (scale of 0 to 100 where 0 is no effect and 100 is complete control), Oat, Wild: Postemergence, 31 g ai/ha, visually evaluated after 13 to 15 days; for Oat, Wild plant response rating / Plant response rating, Oat, Wild: postemergence; for Oat, Wild plant response rating: 62 g ai/ha, scale 0 to 100
Procedure, shortened: as §1

[4] = test system: oilseed rape; type: in vivo, Brassica napus; details: postemergence; for Oilseed Rape plant response rating: 62 g ai/ha, scale 0 to 100
Procedure, shortened: as §1

[5] = test system: soybean; type: in vivo, Glycine max; details: postemergence; for Plant response rating, Soybean: 250 g ai/ha, scale 0 to 100 (0 no effect, 100 complete control); for Soybean plant response rating: 125 g ai/ha, scale 0 to 100, 0 no effect, 100 complete control
Procedure, shortened: as §1

[6] = test system: ryegrass, Italian; type: in vivo, Lolium multiflorum; details: postemergence
Procedure, shortened: as §1

[7] = test system: pigweed; type: in vivo, Amaranthus retroflexus; details: postemergence; for Pigweed plant response rating: 62 g ai/ha, scale 0 to 100
Procedure, shortened: as §1

[8] = test system: blackgrass; type: in vivo, Alopecurus myosuroides; details: for Plant response rating (scale of 0 to 100 where 0 is no effect and 100 is complete control), Blackgrass: Postemergence, 31 g ai/ha, visually evaluated after 13 to 15 days; for Blackgrass plant response rating / Plant response rating, Blackgrass: postemergence; for Blackgrass plant response rating: 62 g ai/ha, scale 0 to 100
Procedure, shortened: as §1

[9] = test system: ragweed; type: in vivo, Ambrosia elation; details: postemergence
Procedure, shortened: as §1

[10] = test system: morningglory; type: in vivo, Ipomoea coccinea; details: for Plant response rating (scale of 0 to 100 where 0 is no effect and 100 is complete control), Morningglory: Postemergence, 31 g ai/ha, visually evaluated after 13 to 15 days; for Morningglory plant response rating / Plant response rating, Morningglory: postemergence; for Morningglory plant response rating: 62 g ai/ha, scale 0 to 100
Procedure, shortened: as §1

[11] = test system: chickweed; type: in vivo, Stellaria media; details: for Plant response rating (scale of 0 to 100 where 0 is no effect and 100 is complete control), Chickweed: Postemergence, 31 g ai/ha, visually evaluated after 13 to 15 days; for Chickweed plant response rating / Plant response rating, Chickweed: postemergence; for Chickweed plant response rating: 62 g ai/ha, scale 0 to 100
Procedure, shortened: as §1

[12] = test system: foxtail, giant; type: in vivo, Setaria faberii; details: for Plant response rating (scale of 0 to 100 where 0 is no effect and 100 is complete control), Foxtail, Giant: Postemergence, 31 g ai/ha, visually evaluated after 13 to 15 days; for Foxtail, Giant plant response rating / Plant response rating, Foxtail, Giant: postemergence; for Foxtail, Giant plant response rating: 62 g ai/ha, scale 0 to 100
Procedure, shortened: as §1

[13] = test system: johnsongrass; type: in vivo, Sorghum halepense; details: for Plant response rating (scale of 0 to 100 where 0 is no effect and 100 is complete control), Johnsongrass: Postemergence, 31 g ai/ha, visually evaluated after 13 to 15 days; for Johnsongrass plant response rating / Plant response rating, Johnsongrass: postemergence; for Johnsongrass plant response rating: 62 g ai/ha, scale 0 to 100
Procedure, shortened: as §1

[14] = test system: corn; type: in vivo, Zea mays; details: for Plant response rating (scale of 0 to 100 where 0 is no effect and 100 is complete control), Corn: Postemergence, 31 g ai/ha, visually evaluated after 13 to 15 days; for Corn plant response rating / Plant response rating, Corn: postemergence; for Corn plant response rating: 62 g ai/ha, scale 0 to 100
Procedure, shortened: as §1

[15] = test system: velvetleaf; type: in vivo, Abutilon theophrasti; details: postemergence; for Plant response rating, Velvetleaf: 250 g ai/ha, scale 0 to 100 (0 no effect, 100 complete control)
Procedure, shortened: as §1

[16] = test system: waterhemp; type: in vivo, Amaranthus rudis; details: postemergence, 250 g ai/ha; scale 0 to 100 (0 no effect, 100 complete control)
Procedure, shortened: as §1

[17] = test system: nutsedge, yellow; type: in vivo, Cyperus esculentus; details: for Plant response rating (scale of 0 to 100 where 0 is no effect and 100 is complete control), Nutsedge, Yellow: Postemergence, 31 g ai/ha, visually evaluated after 13 to 15 days; for Nutsedge, Yellow plant response rating / Plant response rating, Nutsedge, Yellow: postemergence; for Nutsedge, Yellow plant response rating: 62 g ai/ha, scale 0 to 100
Procedure, shortened: as §1

[18] = test system: kochia; type: in vivo, Kochia scoparia; details: for Plant response rating (scale of 0 to 100 where 0 is no effect and 100 is complete control), Kochia: Postemergence, 31 g ai/ha, visually evaluated after 13 to 15 days; for Kochia plant response rating / Plant response rating, Kochia: postemergence; for Kochia plant response rating: 62 g ai/ha, scale 0 to 100
Procedure, shortened: as §1

[19] = 250 g ai/ha, scale 0 to 100 (0 no effect, 100 complete control)
[20] = 125 g ai/ha, scale 0 to 100, 0 no effect, 100 complete control

## CCNC(=O)c1cc(CC)n(Cc2ccnc(C(F)(F)F)c2)n1 [Compound 196]
[1]
  Plant response rating (scale of 0 to 100 where 0 is no effect and 100 is complete control), Crabgrass, Large: 5
  Crabgrass, Large plant response rating: 5
[1]; [19]
  Plant response rating, Crabgrass, Large: 25
[1]; [20]
  Plant response rating, Crabgrass, Large: 10
[2]
  Plant response rating (scale of 0 to 100 where 0 is no effect and 100 is complete control), Galium: 40
  Galium plant response rating: 55
[2]; [19]
  Plant response rating, Galium: 90
[2]; [20]
  Plant response rating, Galium: 80
[3]
  Plant response rating (scale of 0 to 100 where 0 is no effect and 100 is complete control), Oat, Wild: 5
  Oat, Wild plant response rating: 5
[3]; [19]
  Plant response rating, Oat, Wild: 15
[3]; [20]
  Plant response rating, Oat, Wild: 10
[4]
  Oilseed Rape plant response rating: 5
[4]; [19]
  Plant response rating, Oilseed Rape: 70
[4]; [20]
  Plant response rating, Oilseed Rape: 10
[5]
  Plant response rating, Soybean: 95
  Soybean plant response rating: 80
[6]; [19]
  Plant response rating, Ryegrass, Italian: 5
[6]; [20]
  Plant response rating, Ryegrass, Italian: 5
[7]
  Pigweed plant response rating: 60
[7]; [19]
  Plant response rating, Pigweed: 70
[7]; [20]
  Plant response rating, Pigweed: 70
[8]
  Plant response rating (scale of 0 to 100 where 0 is no effect and 100 is complete control), Blackgrass: 20
  Blackgrass plant response rating: 15
[8]; [19]
  Plant response rating, Blackgrass: 15
[8]; [20]
  Plant response rating, Blackgrass: 5
[9]; [19]
  Plant response rating, Ragweed: 40
[9]; [20]
  Plant response rating, Ragweed: 15
[10]
  Plant response rating (scale of 0 to 100 where 0 is no effect and 100 is complete control), Morningglory: 40
  Morningglory plant response rating: 80
[10]; [19]
  Plant response rating, Morningglory: 75
[10]; [20]
  Plant response rating, Morningglory: 55
[11]
  Plant response rating (scale of 0 to 100 where 0 is no effect and 100 is complete control), Chickweed: 50
  Chickweed plant response rating: 60
[11]; [19]
  Plant response rating, Chickweed: 80
[11]; [20]
  Plant response rating, Chickweed: 80
[12]
  Plant response rating (scale of 0 to 100 where 0 is no effect and 100 is complete control), Foxtail, Giant: 5
  Foxtail, Giant plant response rating: 25
[12]; [19]
  Plant response rating, Foxtail, Giant: 20
[12]; [20]
  Plant response rating, Foxtail, Giant: 20
[13]
  Plant response rating (scale of 0 to 100 where 0 is no effect and 100 is complete control), Johnsongrass: 0
  Johnsongrass plant response rating: 5
[13]; [19]
  Plant response rating, Johnsongrass: 15
[13]; [20]
  Plant response rating, Johnsongrass: 10
[14]
  Plant response rating (scale of 0 to 100 where 0 is no effect and 100 is complete control), Corn: 5
  Corn plant response rating: 5
[14]; [19]
  Plant response rating, Corn: 15
[14]; [20]
  Plant response rating, Corn: 5
[15]
  Plant response rating, Velvetleaf: 50
[16]
  Plant response rating, Waterhemp: 70
[17]
  Plant response rating (scale of 0 to 100 where 0 is no effect and 100 is complete control), Nutsedge, Yellow: 5
  Nutsedge, Yellow plant response rating: 0
[17]; [19]
  Plant response rating, Nutsedge, Yellow: 10
[17]; [20]
  Plant response rating, Nutsedge, Yellow: 5
[18]
  Plant response rating (scale of 0 to 100 where 0 is no effect and 100 is complete control), Kochia: 80
  Kochia plant response rating: 85
[18]; [19]
  Plant response rating, Kochia: 90
[18]; [20]
  Plant response rating, Kochia: 90

## Cc1cc(C(=O)NC(C)C)nn1Cc1ccnc(C(F)(F)F)c1 [Compound 197]
[1]
  Plant response rating (scale of 0 to 100 where 0 is no effect and 100 is complete control), Crabgrass, Large: 5
  Crabgrass, Large plant response rating: 5
[1]; [19]
  Plant response rating, Crabgrass, Large: 15
[1]; [20]
  Plant response rating, Crabgrass, Large: 10
[2]
  Plant response rating (scale of 0 to 100 where 0 is no effect and 100 is complete control), Galium: 40
  Galium plant response rating: 50
[2]; [19]
  Plant response rating, Galium: 85
[2]; [20]
  Plant response rating, Galium: 50
[3]
  Plant response rating (scale of 0 to 100 where 0 is no effect and 100 is complete control), Oat, Wild: 0
  Oat, Wild plant response rating: 0
[3]; [19]
  Plant response rating, Oat, Wild: 5
[3]; [20]
  Plant response rating, Oat, Wild: 5
[4]
  Oilseed Rape plant response rating: 5
[4]; [19]
  Plant response rating, Oilseed Rape: 10
[4]; [20]
  Plant response rating, Oilseed Rape: 20
[5]
  Plant response rating, Soybean: 95
  Soybean plant response rating: 90
[6]; [19]
  Plant response rating, Ryegrass, Italian: 5
[6]; [20]
  Plant response rating, Ryegrass, Italian: 0
[7]
  Pigweed plant response rating: 60
[7]; [19]
  Plant response rating, Pigweed: 70
[7]; [20]
  Plant response rating, Pigweed: 65
[8]
  Plant response rating (scale of 0 to 100 where 0 is no effect and 100 is complete control), Blackgrass: 0
  Blackgrass plant response rating: 0
[8]; [19]
  Plant response rating, Blackgrass: 15
[8]; [20]
  Plant response rating, Blackgrass: 5
[9]; [19]
  Plant response rating, Ragweed: 55
[9]; [20]
  Plant response rating, Ragweed: 40
[10]
  Plant response rating (scale of 0 to 100 where 0 is no effect and 100 is complete control), Morningglory: 75
  Morningglory plant response rating: 75
[10]; [19]
  Plant response rating, Morningglory: 98
[10]; [20]
  Plant response rating, Morningglory: 65
[11]
  Plant response rating (scale of 0 to 100 where 0 is no effect and 100 is complete control), Chickweed: 50
  Chickweed plant response rating: 55
[11]; [19]
  Plant response rating, Chickweed: 80
[11]; [20]
  Plant response rating, Chickweed: 60
[12]
  Plant response rating (scale of 0 to 100 where 0 is no effect and 100 is complete control), Foxtail, Giant: 0
  Foxtail, Giant plant response rating: 0
[12]; [19]
  Plant response rating, Foxtail, Giant: 10
[12]; [20]
  Plant response rating, Foxtail, Giant: 5
[13]
  Plant response rating (scale of 0 to 100 where 0 is no effect and 100 is complete control), Johnsongrass: 0
  Johnsongrass plant response rating: 65
[13]; [19]
  Plant response rating, Johnsongrass: 5
[13]; [20]
  Plant response rating, Johnsongrass: 0
[14]
  Plant response rating (scale of 0 to 100 where 0 is no effect and 100 is complete control), Corn: 5
  Corn plant response rating: 5
[14]; [19]
  Plant response rating, Corn: 10
[14]; [20]
  Plant response rating, Corn: 5
[15]
  Plant response rating, Velvetleaf: 40
[15]; scale 0 to 100
  Velvetleaf plant response rating: 40
[16]
  Plant response rating, Waterhemp: 55
[17]
  Plant response rating (scale of 0 to 100 where 0 is no effect and 100 is complete control), Nutsedge, Yellow: 0
  Nutsedge, Yellow plant response rating: 5
[17]; [19]
  Plant response rating, Nutsedge, Yellow: 5
[17]; [20]
  Plant response rating, Nutsedge, Yellow: 10
[18]
  Plant response rating (scale of 0 to 100 where 0 is no effect and 100 is complete control), Kochia: 40
  Kochia plant response rating: 60
[18]; [19]
  Plant response rating, Kochia: 90
[18]; [20]
  Plant response rating, Kochia: 85
